pIC50: −log10 of the molar value. Where two headings read alike, the source gives them in different places.
Experiments:
HT1080 cells = type: cell-based, human; settings: for uptake of fluorescent PLGA-PEG NPs: 30 min pre-treatment, imaged 3 h later
Protocol: In vitro NP uptake imaging. To quantify subcellular localization of NPs in HT1080 cells, Rab7a-RFP and Lamp1-RFP fusion constructs were expressed using a commercial baculovirus platform (CellLight BacMam 2.0, Invitrogen), following manufacturing guidelines. Pharmacological modulation of NP uptake was performed using the following: staurosporine (1 μM; LC labs), latrunculin B (1 μM; Tocris), cytochalasin D (1 μM; Sigma), chloroquine (50 μM; Sigma), and ethylisopropyl amiloride EIPA (100 μM; Tocris). Cells were rinsed in fresh media immediately prior to imaging; only adherent cells were quantified. Chloroquine dose-response measurements were normalized to the C16proDOX control (rather than the chloroquine-free control), in order to compare relative effects on the potency of Pd-mediated C16proDOX activation itself 50 μM chloroquine alone caused a 15-30% decrease in cell viability.

HT1080 cancer cells = experiment: Subcellular drug accumulation by intrinsic anthracycline fluorescence microscopy; type: cell-based, human; settings: HT1080, 24 h
Protocol: FIGS. 3A-3D. […] Co-localization was determined by tabulating the fraction of NP-positive puncta (vesicles) in cells that contained high RFP expression or not (labeled red and gray, respectively; n>10 cells, bars are mean±std. dev.). b) Following 30 min pre-treatment with the indicated compounds, HT1080 cells were treated with the same NP as in a, and imaged 3 h later (n>6 biological replicates; mean±s.e.m.). c-d) HT1080 tumor cells were treated with C16proDOX, DOX, or Pd-NP with C16proDOX for 24 h, and then imaged by fluorescence microscopy (representative images shown in c) to evaluate subcellular drug accumulation based on endogenous anthracycline fluorescence (scale bar, 20 μm). Yellow lines (c) denote representative examples of how fluorescence intensity profiles were quantified from line-scans through cells (d), shown as means (thick line)±s.e.m. (shading; n>10), for hoechstand anthracycline fluorescence.

[1] = without the C16 anchor; cited from earlier work
[2] = cited from earlier work
[3] = test system: HT1080 fibrosarcoma cancer cells; experiment: Resazurin-based cytotoxicity assay, 72 h; settings: for pIC50: read-out: IC50 (concentration at which 50% of cells died)
Protocol: (§1) In vitro NP characterization: 5,000 cells per well were added to 96-well plates for cytotoxicity assessment; cells were treated after overnight seeding with compound or the appropriate buffer control (drug-free PLGA-PEG NP), and assessed for viability 72 h later using PrestoBlue (Life Technologies) following the manufacturer's protocol.

[4] = Resazurin-based cytotoxicity assay, 72 h; settings: human, HT1080 fibrosarcoma cancer cells
Protocol: as §1

[5] = Pd-mediated uncaging of fluorogenic coumarin substrate (reaction kinetics and catalyst performance); settings: PdCl2(TFP)2, HBSS
Protocol: Reaction kinetics and catalyst performance. Alloc-SIL-dPEG4-AMC (8) was reacted at a concentration of 5 μM with palladium catalyst (Pd-1, Pd-2, Pd-3, Pd-4) at a concentration of 10 μM in HBSS and MEM (see FIG. 8). Alloc2R110 was reacted at a concentration of 5 μM with Pd-1 at a concentration of 10 μM in HBSS as described previously.2 Fluorescence was monitored for 10 h at room temperature using 96 well plates and a Tecan Safire 2 fluorescence plate reader.

[6] = In vitro NP prodrug release in PBS; type: physicochemical; settings: over 72 h at 37° C. in PBS
Protocol: Transmission electron microscopy (TEM) was performed in the Microscopy Core of the Center for Systems Biology/Program in Membrane Biology (MGH). […] Excess solution was blotted, grids were stained with phosphotungstic acid, and then blotted, dried and imaged. In vitro NP prodrug release was performed by incubating in PBS at 37° C., separating NPs using a 30 kDa molecular weight cutoff filter (Millipore Amicon) after 72 h, and measuring flow-through for drug content by absorbance (Nanodrop). NP was dissolved in DMF and also measured for drug content by absorbance. Pd-NP, Alloc2R110 and its nanoformulation, and all Pd compounds were synthesized and characterized as previously described.^5

In the case of CN[C@@H]1C[C@H]2O[C@@](C)([C@@H]1OC)n1c3ccccc3c3c4c(c5c6ccccc6n2c5c31)C(=O)NC4 [staurosporine], the “uptake of fluorescent PLGA-PEG NPs” value (HT1080 cells) was “decreased NP accumulation”.
With C=C1[C@@H](C)[C@H]2[C@H](Cc3ccccc3)NC(=O)[C@]23[C@H](OC(C)=O)/C=C/[C@@](C)(O)C(=O)[C@@H](C)C/C=C/[C@H]3[C@@H]1O [cytochalasin D] the “uptake of fluorescent PLGA-PEG NPs” value (HT1080 cells) was “acutely reduced the uptake of NPs”.
With CCN(c1nc(N)c(C(=O)N=C(N)N)nc1Cl)C(C)C [EIPA, 5-(N-Ethyl-N-isopropyl)amiloride] the “uptake of fluorescent PLGA-PEG NPs” value (HT1080 cells) was “acutely reduced the uptake of NPs”.
For C/C1=C/C(=O)O[C@@H]2C[C@@H](CC[C@H](C)/C=C\C=C\CC1)O[C@@](O)([C@@H]1CSC(=O)N1)C2 [latrunculin A], the “uptake of fluorescent PLGA-PEG NPs” value (HT1080 cells) was “acutely reduced the uptake of NPs”.
In the case of COc1cccc2c1C(=O)c1c(O)c3c(c(O)c1C2=O)C[C@@](O)(C(=O)CO)C[C@@H]3O[C@H]1C[C@H](N)[C@H](O)[C@H](C)O1 [doxorubicin, reference compound], the subcellular accumulation (HT1080 cancer cells; without Pd-NP) is listed as “primarily accumulates in the nuclei of cancer cells”, the “nano-encapsulation efficiency (earlier report)” value [1] is listed as 22% and the myelotoxicity ([2]; solvent- and nano-formulations, equimolar doses) is listed as “exhibited myelotoxicity”. For the same compound, the pIC50 ([3]; Homo sapiens, HT-1080, 72 h) was 7.00.
In the case of CCN(CC)CCCC(C)Nc1ccnc2cc(Cl)ccc12 (stereo not drawn) [chloroquine, reference compound], the “NP accumulation in vesicles” value (HT1080 cells; HT1080, 50 μM chloroquine co-treatment, 24 h) was “enhanced accumulation of NPs in distinctly large vesicles”, the cytotoxicity at 72 h, 50 μM [4] was 15 to 30% and the “impact on cytotoxicity of combined Pd-NP and C16proDOX treatment” value ([3]; HT1080, 50 μM chloroquine, 50 μM Pd-NP, 72 h) was “only modest impact”.
With C=CCOC(=O)Nc1ccc(C(OC(=O)Nc2ccc3c(C)cc(=O)oc3c2)C(=O)NCCOCCOCCOCCO)cc1 (stereo not drawn) [Alloc-SIL-PEG4-AMC, Alloc-SIL-AMC-dPEG4] the “uncaging rate relative to Alloc2R110 (calculated second order rate constants)” value [5] was “approximately 1.5 fold”.
For C=CCOC(=O)Nc1ccc(C(OC(=O)N[C@H]2C[C@H](O[C@H]3C[C@](O)(C(=O)CO)Cc4c(O)c5c(c(O)c43)C(=O)c3c(OC)cccc3C5=O)O[C@@H](C)[C@H]2O)C(=O)NCCCCCCCCCCCCCCCC)cc1 (stereo partly drawn) [C16proDOX, Alloc-SIL-C16-Dox], the “release of the prodrug payload from the nanoformulation” value [6] was 20%±6%, the subcellular accumulation (HT1080 cancer cells; co-incubation with Pd-NP) was “detectable increase of drug in the nucleus compared to the cytoplasm” and the subcellular accumulation (HT1080 cancer cells; without Pd-NP) was “accumulated primarily in cytoplasmic/perinuclear cellular compartments”. For the same compound, the “IC20, fold higher than Alloc-DOX” value ([3]; HT1080, without Pd-NP) was “roughly 15 fold”, the “IC20, fold higher than uncaged DOX” value ([3]; HT1080, without Pd-NP) was about 1900 fold and the pIC50 ([3]; Homo sapiens, HT-1080, 72 h) was under 4.30.
In the case of C=CCOC(=O)N[C@H]1C[C@H](O[C@H]2C[C@](O)(C(=O)CO)Cc3c(O)c4c(c(O)c32)C(=O)c2c(OC)cccc2C4=O)O[C@@H](C)[C@H]1O [Alloc-DOX, reference compound], the myelotoxicity ([2]; dual Pd-NP and Alloc-DOX strategy) is given as “did not”, the pIC50 ([3]; HT1080, 72 h, without Pd-NP) is given as 4.74 and the “turn-on capacity in cytotoxicity” value ([3]; with vs without Pd-NP) is given as about 700 ×.

Source: patent US12636373B2, “Prodrugs with a tridentate self-immolative linker” (The General Hospital Corporation, priority 2018, dated 2026)
